# Reference: publication PMC3580045 (Journal of pharmacy & pharmaceutical sciences : a …, 2012)
# Read-outs that look alike come from different tables or passages of the source. Marks after values point to notes of the source that are not given here.
# Key:
# [1] = Hydrolysis in Caco-2 cell homogenate; type: in vitro ADME, human; conditions: for Half-lives, Caco-2 Cell Homogenate: pH 7.4 phosphate buffer, 37°C, mean ± SD, n = 3, NA = no significant degradation
# [2] = Hydrolysis in human small intestinal; type: in vitro ADME
# [3] = Hydrolysis in human non-tumor liver tissue homogenate; type: in vitro ADME; conditions: for Half-lives, Human non-Tumor Liver Tissue Homogenate: mean ± SD, n = 3, NA = no significant degradation
# [4] = Hydrolysis in human tumor liver tissue homogenate; type: in vitro ADME; conditions: mean ± SD, n = 3; NA = no significant degradation
# [5] = Hydrolysis in Capan-2 cell homogenate; type: in vitro ADME, human
# [6] = pH 7.4 phosphate buffer, 37°C; mean ± SD; cited from earlier work
# [7] = mean ± SD; cited from earlier work
# [8] = Stability in human liver microsomes; conditions: for Half-lives, Human Liver Microsomes: mean ± SD, n = 3, NA = no significant degradation
# [9] = mean ± SD; cited from earlier work; remark: listed apart in the source
# [10] = phosphate buffer
# [11] = Hydrolysis in AsPC-1 cell homogenate; type: in vitro ADME; conditions: human, pH 7.4
# [12] = Hydrolysis in human pancreas; type: in vitro ADME; conditions: human pancreas tissue homogenate
# [13] = reported by several groups; cited from earlier work
Structure (SMILES),"Half-lives, Caco-2 Cell Homogenate [1]","Half-lives, Human non-Tumor Liver Tissue Homogenate [3]","Half-lives, Human Tumor Liver Tissue Homogenate [4]","Half-lives, Buffer pH 7.4 [6]","Half-lives, AsPC-1 Cell Homogenate [7]","Half-lives, Human Liver Microsomes [8]","Half-lives, Capan-2 Cell Homogenate [9]",also measured
CC(C)[C@@H](N)C(=O)OC[C@H]1O[C@@H](n2cc(F)c(=O)[nH]c2=O)C[C@@H]1O [5′-O-D-valyl-floxuridine],220.4 ± 64.0 min,19.0 ± 0.2 min,9.4 ± 0.5 ^∞ min,344.9 ± 10.2 ^a min,290.9 ± 48.9 ^a min,705.9 ± 64.2 min,–,"fold more stable than 5′-O-L-valyl-floxuridine ([1]; Caco-2 homogenate): 16.1 fold; fold more stable than 5′-O-L-valyl-floxuridine ([2]; human intestinal tissue homogenate): 11.3 fold; fold better stability than 5′-O-L-valyl-floxuridine ([3]; human liver tissue homogenates (non-tumor and tumor)): 3- to 10 fold; Half-lives, Capan-2 Cell Homogenate ([5]; mean ± SD, n = 3, NA = no significant degradation): 188.3 ± 12.1 min; fold better stability than 5′-O-L-valyl-floxuridine ([8]; human liver microsomes): 243 fold; fold more stable in human liver microsomes than in human liver tissue homogenates ([8]; microsomes vs liver tissue homogenates): at least 37 fold"
N[C@@H](Cc1ccccc1)C(=O)N[C@@H](Cc1ccc(O)cc1)C(=O)OC[C@H]1O[C@@H](n2cc(F)c(=O)[nH]c2=O)C[C@@H]1O [5′-O-L-phenylalanyl-L-tyrosyl-floxuridine],115.2 ± 54.2 min,358.3 ± 20.3 min,241.4 ± 5.1 min,233.9 ± 6.6 ^b min,59.7 ± 1.4 ^b min,253.0 ± 36.2 min,42.8 ± 0.0 ^b min,–
CC(C)C[C@H](N)C(=O)OC[C@H]1O[C@@H](n2cc(F)c(=O)[nH]c2=O)C[C@@H]1O [5′-O-L-leucyl-floxuridine],3.3 ± 0.9 min,< 0.2 min,–,83.2 ± 1.7 ^b min,2.0 ± 0.1 ^a min,0.8 ± 0.1 min,4.7 ± 2.1 ^b min,–
CC[C@H](C)[C@H](N)C(=O)OC[C@H]1O[C@@H](n2cc(F)c(=O)[nH]c2=O)C[C@@H]1O [5′-O-L-isoleucyl-floxuridine],131.6 ± 48.4 min,5.2 ± 0.1 min,< 0.2 min ^∞,323.5 ± 1.5 ^a min,198.0 ± 70.2 ^b min,19.4 ± 7.8 min,139.9 ± 15.3 ^b min,–
CC(C)[C@H](N)C(=O)OC[C@H]1O[C@@H](n2cc(F)c(=O)[nH]c2=O)C[C@@H]1O [5′-O-L-valyl-floxuridine],13.7 ± 2.0 min,2.0 ± 0.3 min,3.5 ± 0.2 ^∞ min,304.0 ± 33.3 ^b min,18.7 ± 6.7 ^b min,2.9 ± 0.1 min,5.2 ± 2.4 ^b min,–
O=C(O[C@H]1C[C@H](n2cc(F)c(=O)[nH]c2=O)O[C@@H]1CO)[C@@H]1CCCN1 [Floxuridine-3′-L-proline],–,–,–,–,–,–,–,"stability (in words) ([1]; Caco-2 cell homogenate): stable; stability (in words) ([2]; human small bowel tissue homogenate): stable; degradation (in words) ([3]; human liver tissue homogenate, over 2 hr): no significant degradation; stability (in words) [10]: stable; degradation (in words) ([8]; human liver microsomes, over 2 hr): no significant degradation"
"O=c1[nH]c(=O)n([C@H]2C[C@H](O)[C@@H](CO)O2)cc1F [Floxuridine, 5-fluoro-2′-deoxyuridine, reference compound]",–,–,–,–,–,–,–,"half-life ([1]; human, Caco-2, pH 7.4): 14.3 ± 7 min; half-life ([2]; human, pH 7.4): 14 ± 4 min; half-life ([3]; human, human non-tumor liver tissue homogenate, pH 7.4): 5 ± 2.4 min; half-life [11]: 6.4 ± 3.2 min; half-life ([5]; human, Capan-2 cell homogenate, pH 7.4): 17.8 ± 5.8 min; stability (in words) [12]: good stability; half-life ([12]; human, non-tumor, pH 7.4): 209 ± 19.4 min; fold higher potency than 5-FU [13]: 10- to 100 fold; half-life ([8]; human, human liver microsomes): < 0.2 min"
N[C@@H](Cc1ccccc1)C(=O)OC[C@H]1O[C@@H](n2cc(F)c(=O)[nH]c2=O)C[C@@H]1O [5′-O-L-phenylalanyl-floxuridine],12.2 ± 0.1 min,3.2 ± 1.2 min,–,187.0 ± 19.0 ^b min,11.8 ± 1.7 ^b min,1.3 ± 0.4 min,3.0 ± 0.1 ^b min,–
CC(C)[C@H](N)C(=O)N[C@@H](Cc1ccccc1)C(=O)OC[C@H]1O[C@@H](n2cc(F)c(=O)[nH]c2=O)C[C@@H]1O [5′-O-L-valyl-L-phenylalanyl-floxuridine],57.6 ± 9.3 min,2.2 ± 0.0 min,< 0.2 min ^* ^∞,104.7 ± 7.0 ^b min,51.6 ± 4.2 ^b min,24.7 ± 2.4 min,56.2 ± 12.8 ^b min,–
N[C@@H](Cc1ccccc1)C(=O)NCC(=O)OC[C@H]1O[C@@H](n2cc(F)c(=O)[nH]c2=O)C[C@@H]1O [5′-O-L-phenylalanyl-L-glycyl-floxuridine],2.9 ± 0.5 min,3.2 ± 0.3 min,–,132.1 ± 10.2 ^b min,10.2 ± 0.3 ^b min,15.9 ± 1.9 min,4.3 ± 0.9 ^b min,–
